Laboratory results reported in patent US10758524B2, “Compositions and methods for selectively depleting senescent cells” (BioVentures, LLC, priority 2014, dated 2020).

Legend:
Format in all cases: cell-based
[1] = test system: IR-induced senescent WI38 cells; assay: Cell viability of IR-induced senescent WI38 cells at 72 h (LD50); settings: for IC50: Homo sapiens, WI-38, 72 h, read-out: LD50 IR-senescent cells (SC); for Ratio (NSC/SC) / Ratio (normal/senescent): ratio of LD50 values; for Ratio (NSC/SC): Table 2; for LD50 (IR-senescent): IR-induced senescent WI38 cells; for LD50 (IR-senescent) / Ratio (normal/senescent): Table 1
Description: (§1) Normal WI38 cells (FIG. 1A), IR-induced senescent cells (FIG. 1B) and replicative senescent cells (FIG. 1C) were incubated with increasing concentrations of PL. At 72 hours post-treatment cell viability was measured. […] IR-induced senescent WI38 cells were treated with 10 μM PL and viable cells were measured at 0, 1, 2, 3, 6, 12, 16, 24, 48 and 72 hours after treatment (FIG. 1D) or the cells were incubated with 10 μM PL for 1, 3, 6, 12, 24, 48 or 72 hours and cell viability was measured at 72 h (FIG. 1E).
(§2) At 72 hours post-treatment cell viability was measured.
(§3) Normal WI38 cells and IR-induced senescent cells were incubated with increasing concentrations of compounds of Formula I and Formula II. At 72 hours post-treatment cell viability was measured and LD50 was calculated.

Normal WI38 cells = assay: Cell viability of normal WI38 cells at 72 h (LD50); settings: for CC50: Homo sapiens, WI-38, 72 h, read-out: LD50 non-senescent cells (NSC); for LD50 (normal): normal WI38 cells, Table 1
Description: as §1, §2, §3

[2] = test system: replicative senescent WI38 cells; assay: Cell viability of replicative senescent WI38 cells at 72 h (LD50)
Description: as §1

[3] = test system: IR-induced senescent WI38 cells; assay: Reactive oxygen species (ROS) measurement after PL treatment; settings: 10 μM PL, at 24 hours
Description: PL selectively increases ROS in senescent WI38 in a time-dependent manner. Normal (FIG. 2A) and IR-induced senescent WI38 cells (FIG. 2B) were incubated with vehicle (Veh), […] H2O2 for 30 min as a positive control, or 10 μM PL. Reactive oxygen species (ROS) was measured at various times (1, 3, 6, 12, 24 hours) after PL treatment and expressed as percent of control. Data are presented as mean±SE of three independent assays.

Row | Structure (SMILES) | IC50 [1] | Ratio (NSC/SC) [1] | CC50 (Normal WI38 cells) | also measured
1 | CCCOc1c(OC)cc(/C=C/C(=O)N2CCC=CC2=O)cc1OC [GZ-11719-by] | 47.1 µM | 1.80 | 84.7 µM | –
2 | COc1cc(/C=C(\Br)C(=O)N2CCC=CC2=O)c(Br)c(OC)c1OC [GZ-11734] | 1.39 µM | 5.14 | 7.16 µM | –
3 | COc1cc(/C=C/C(=O)N2CCCCCC2=O)cc(OC)c1OC [XL-11178A] | > 40 µM | – | > 40 µM | –
4 | COc1cc(/C=C/C(=O)N2CCC=CC2=O)cc(OC)c1OC [PL, 5,6-dihydro-1-[(2E)-1-oxo-3-(3,4,5-trimethoxyphenyl)-2-propenyl]-2(1H)-pyridinone, reference compound] | – | – | – | viable cells over time ([1]; 10 μM PL, from 6 hours on, both treatment scenarios): significant reduction in viable cells; LD50 (IR-senescent) [1]: 7.05 µM; effect on number of viable cells ([1]; PL as low as 5 μM, 72 hours): significantly reduced the number of viable cells; Ratio (normal/senescent) [1]: 3.44-3.82; effect on cell viability (Normal WI38 cells; PL up to 10 μM, 72 hours): no significant effect; LD50 (normal) (Normal WI38 cells): 24.25 µM; effect on number of viable cells ([2]; PL as low as 5 μM, 72 hours): significantly reduced the number of viable cells; LD50 (Replicative) ([2]; replicative senescent WI38 cells, Table 1): 6.35 µM; ROS production [3]: significantly increased ROS production
5 | O=C(C#Cc1ccccc1)N1CCC=CC1=O [XZ 12040] | 2.4 µM | 2.41 | 5.78 µM | –
6 | CCCCS(=N)(=O)CCC(N)C(=O)O (stereo not drawn) [Buthionine sulfoximine, reference compound] | – | – | – | LD50 (IR-senescent) [1]: 2391.51 µM; Ratio (normal/senescent) [1]: 1.0; LD50 (normal) (Normal WI38 cells): 2340.19 µM
7 | COc1cc(/C=C/C(=O)N2CCC=CC2=O)cc(OC)c1OCCN(C)C [XL-11194] | 4.02 µM | 2.56 | 10.3 µM | –
8 | CC(=O)N[C@@H](CS)C(=O)O [NAC, N-Acetyl-Cysteine, reference compound] | – | – | – | effect on PL induced cell death ([1]; pre-treatment 2 hours (NAC 1 mM; Q-VD-OPh 20 μM), then 10 μM PL 72 h): selectively inhibited PL induced cell death
9 | O=C1C=CCCN1C(=O)/C=C/c1ccccc1C(F)(F)F [XZ-12047] | 10.8 µM | 2.03 | 21.9 µM | –
10 | CCCCCCCCCC[P+](c1ccccc1)(c1ccccc1)c1ccccc1 [Decyl-triphenylphosphonium, reference compound] | – | – | – | LD50 (IR-senescent) [1]: 0.98 µM; Ratio (normal/senescent) [1]: 1.4; LD50 (normal) (Normal WI38 cells): 1.41 µM
11 | COc1cc(/C=C(\C#N)C(=O)N2CCC=CC2=O)cc(OC)c1OC [XZ-12052] | 41 µM | 1.95 | 80 µM | –
12 | C=C1CCCN(S(=O)(=O)/C=C/c2ccccc2)C1=O [XZ-12107] | 4.77 µM | 5.02 | 24 µM | –
13 | COc1cc(C#CC(=O)N2CCC=CC2=O)cc(OC)c1OC [XZ-12045] | 4.38 µM | 3.18 | 13.9 µM | –
14 | CC(=O)OC[C@H]1O[C@@H]([S-])[C@H](OC(C)=O)[C@@H](OC(C)=O)[C@@H]1OC(C)=O.CCP(CC)CC.[Au+] [Auranofin, reference compound] | – | – | – | LD50 (IR-senescent) [1]: 5.34 µM; Ratio (normal/senescent) [1]: 1.0; LD50 (normal) (Normal WI38 cells): 5.13 µM
15 | COc1cc(/C=C/C(=O)N2CCC=CC2=O)cc(OC)c1OCCN(C)CCOc1c(OC)cc(/C=C/C(=O)N2CCC=CC2=O)cc1OC [GZ-11719] | 0.9 µM | 1.80 | 1.62 µM | –
